Data published in paper PMC6812009, “Covalent Aurora A regulation by the metabolic integrator coenzyme A” (Redox Biology, 2019).

What was measured:
Experiment in all cases: Kinase profiling screen (radioactive filter-binding assay)
Assay type in all cases: biochemical
[1] = target: T1, MST2 (Homo sapiens, UniProt Q13188); settings: 100 μM compound, 20 μM ATP; read-out: Kinase activity, % of activity in the absence of inhibitor
T1 sequence (Q13188 1-491): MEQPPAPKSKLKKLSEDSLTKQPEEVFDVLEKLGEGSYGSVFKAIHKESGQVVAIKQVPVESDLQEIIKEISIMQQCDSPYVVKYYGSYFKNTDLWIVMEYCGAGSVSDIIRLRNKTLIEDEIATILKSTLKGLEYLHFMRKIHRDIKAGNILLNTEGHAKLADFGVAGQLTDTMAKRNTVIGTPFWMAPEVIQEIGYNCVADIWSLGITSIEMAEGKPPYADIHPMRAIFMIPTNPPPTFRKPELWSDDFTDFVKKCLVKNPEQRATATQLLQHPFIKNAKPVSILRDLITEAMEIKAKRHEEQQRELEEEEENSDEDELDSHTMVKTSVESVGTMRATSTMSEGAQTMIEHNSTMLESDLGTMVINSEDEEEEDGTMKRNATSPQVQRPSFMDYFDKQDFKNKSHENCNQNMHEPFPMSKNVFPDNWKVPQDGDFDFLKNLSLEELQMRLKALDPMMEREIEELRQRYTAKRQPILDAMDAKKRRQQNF
Procedure, shortened: (§1)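 Panel of 117 recombinant kinases; CoA, dpCoA, ADP each at 100 μM final, duplicates; model substrates, ATP at optimal level.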

[2] = target: MST4 (Homo sapiens, UniProt Q9P289); settings: 100 μM compound, 20 μM ATP; read-out: Kinase activity, % of activity in the absence of inhibitor
Chain of MST4 (Q9P289 whole entry): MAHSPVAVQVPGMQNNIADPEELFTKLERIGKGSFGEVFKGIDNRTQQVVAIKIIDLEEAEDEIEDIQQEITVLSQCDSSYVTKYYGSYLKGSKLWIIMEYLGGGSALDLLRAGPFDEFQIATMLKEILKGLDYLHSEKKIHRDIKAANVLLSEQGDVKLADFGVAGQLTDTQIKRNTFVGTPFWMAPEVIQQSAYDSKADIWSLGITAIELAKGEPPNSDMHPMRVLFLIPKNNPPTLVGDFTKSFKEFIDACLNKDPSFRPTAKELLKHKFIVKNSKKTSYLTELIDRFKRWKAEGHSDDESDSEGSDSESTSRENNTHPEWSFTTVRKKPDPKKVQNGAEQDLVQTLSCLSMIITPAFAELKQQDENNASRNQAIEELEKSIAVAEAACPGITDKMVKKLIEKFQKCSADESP
Procedure, shortened: as §1

[3] = target: PAK5 (Homo sapiens, UniProt Q9P286); settings: 100 μM compound, 20 μM ATP; read-out: Kinase activity, % of activity in the absence of inhibitor
Chain of PAK5 (Q9P286 whole entry): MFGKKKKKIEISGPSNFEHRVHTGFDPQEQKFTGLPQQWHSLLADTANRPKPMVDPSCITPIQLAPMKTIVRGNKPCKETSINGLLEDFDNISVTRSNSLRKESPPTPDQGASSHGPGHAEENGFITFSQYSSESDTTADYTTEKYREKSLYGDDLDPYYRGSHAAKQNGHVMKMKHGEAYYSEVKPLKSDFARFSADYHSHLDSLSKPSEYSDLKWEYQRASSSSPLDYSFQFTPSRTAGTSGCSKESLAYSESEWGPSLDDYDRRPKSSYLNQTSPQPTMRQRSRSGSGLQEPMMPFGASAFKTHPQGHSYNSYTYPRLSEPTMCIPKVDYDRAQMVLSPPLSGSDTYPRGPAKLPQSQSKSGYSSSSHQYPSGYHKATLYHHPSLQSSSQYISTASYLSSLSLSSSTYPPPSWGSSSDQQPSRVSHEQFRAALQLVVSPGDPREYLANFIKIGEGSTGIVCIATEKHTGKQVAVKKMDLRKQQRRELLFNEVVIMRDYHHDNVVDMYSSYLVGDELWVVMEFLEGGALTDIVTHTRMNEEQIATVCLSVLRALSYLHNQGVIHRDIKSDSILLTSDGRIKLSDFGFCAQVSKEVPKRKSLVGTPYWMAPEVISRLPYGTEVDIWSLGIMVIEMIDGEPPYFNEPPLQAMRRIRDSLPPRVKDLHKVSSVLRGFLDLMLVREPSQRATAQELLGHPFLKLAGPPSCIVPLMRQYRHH
Procedure, shortened: as §1

[4] = target: T2, IKKε (Homo sapiens, UniProt Q14164); settings: 100 μM compound, 50 μM ATP; read-out: Kinase activity, % of activity in the absence of inhibitor
T2 sequence (Q14164 1-716): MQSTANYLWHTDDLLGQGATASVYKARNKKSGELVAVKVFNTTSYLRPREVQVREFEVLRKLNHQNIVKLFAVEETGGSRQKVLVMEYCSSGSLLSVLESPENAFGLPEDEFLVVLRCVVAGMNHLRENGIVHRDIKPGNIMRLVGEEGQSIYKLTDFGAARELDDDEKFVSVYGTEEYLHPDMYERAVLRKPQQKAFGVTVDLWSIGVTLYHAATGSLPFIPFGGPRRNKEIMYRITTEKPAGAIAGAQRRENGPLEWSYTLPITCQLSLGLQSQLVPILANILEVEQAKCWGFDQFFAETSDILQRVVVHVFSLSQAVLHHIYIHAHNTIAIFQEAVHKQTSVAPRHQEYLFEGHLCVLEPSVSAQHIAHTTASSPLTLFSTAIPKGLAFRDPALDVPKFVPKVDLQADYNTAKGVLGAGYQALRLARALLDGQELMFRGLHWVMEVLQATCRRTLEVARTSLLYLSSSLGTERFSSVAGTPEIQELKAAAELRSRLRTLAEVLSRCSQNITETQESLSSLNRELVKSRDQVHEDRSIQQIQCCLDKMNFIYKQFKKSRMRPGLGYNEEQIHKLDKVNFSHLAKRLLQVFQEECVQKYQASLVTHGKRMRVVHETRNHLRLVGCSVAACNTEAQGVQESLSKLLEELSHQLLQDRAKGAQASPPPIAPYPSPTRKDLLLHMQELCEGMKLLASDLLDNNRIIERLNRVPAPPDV
Procedure, shortened: as §1

[5] = target: T3, MKK6 (Homo sapiens, UniProt P52564); settings: 100 μM compound, 50 μM ATP; read-out: Kinase activity, % of activity in the absence of inhibitor
T3 sequence (P52564 1-334): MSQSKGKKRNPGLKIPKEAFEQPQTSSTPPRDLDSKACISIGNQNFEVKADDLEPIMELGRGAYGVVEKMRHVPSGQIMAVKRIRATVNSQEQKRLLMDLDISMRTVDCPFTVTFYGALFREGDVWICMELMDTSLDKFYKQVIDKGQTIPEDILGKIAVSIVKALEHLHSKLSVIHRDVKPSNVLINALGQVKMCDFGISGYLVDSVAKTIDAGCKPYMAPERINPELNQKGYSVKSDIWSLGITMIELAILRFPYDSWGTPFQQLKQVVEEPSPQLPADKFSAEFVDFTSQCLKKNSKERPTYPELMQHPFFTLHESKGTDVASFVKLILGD
Procedure, shortened: as §1

[6] = target: Aurora B (Homo sapiens, UniProt Q96GD4); settings: for activity at 100 µM: 100 μM compound, 20 μM ATP, read-out: Kinase activity, % of activity in the absence of inhibitor
Chain of Aurora B (Q96GD4 whole entry): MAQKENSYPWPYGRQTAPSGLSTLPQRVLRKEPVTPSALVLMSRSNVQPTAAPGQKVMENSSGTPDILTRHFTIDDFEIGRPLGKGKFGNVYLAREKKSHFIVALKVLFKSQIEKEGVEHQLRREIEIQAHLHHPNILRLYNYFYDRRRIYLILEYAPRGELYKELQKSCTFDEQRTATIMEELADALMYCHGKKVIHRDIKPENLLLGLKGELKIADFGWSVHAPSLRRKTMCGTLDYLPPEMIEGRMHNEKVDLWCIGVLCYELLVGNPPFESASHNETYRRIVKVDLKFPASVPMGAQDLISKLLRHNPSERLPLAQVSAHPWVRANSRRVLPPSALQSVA
Procedure, shortened: as §1

[7] = target: ERK2 (Homo sapiens, UniProt P28482); settings: 100 μM compound, 20 μM ATP; read-out: Kinase activity, % of activity in the absence of inhibitor
Chain of ERK2 (P28482 whole entry): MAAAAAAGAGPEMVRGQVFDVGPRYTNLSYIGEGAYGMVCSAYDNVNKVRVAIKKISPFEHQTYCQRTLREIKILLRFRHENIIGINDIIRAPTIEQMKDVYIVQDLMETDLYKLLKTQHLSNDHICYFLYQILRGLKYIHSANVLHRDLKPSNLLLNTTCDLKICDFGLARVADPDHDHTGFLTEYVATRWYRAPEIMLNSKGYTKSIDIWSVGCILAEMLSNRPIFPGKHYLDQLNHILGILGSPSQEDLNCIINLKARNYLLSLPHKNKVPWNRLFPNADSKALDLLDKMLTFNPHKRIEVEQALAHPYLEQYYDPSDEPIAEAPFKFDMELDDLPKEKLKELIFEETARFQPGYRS
Procedure, shortened: as §1

[8] = target: T4, TAK1 (Homo sapiens, UniProt O43318); settings: 100 μM compound, 5 μM ATP; read-out: Kinase activity, % of activity in the absence of inhibitor
T4 sequence (O43318 1-303 limits assumed): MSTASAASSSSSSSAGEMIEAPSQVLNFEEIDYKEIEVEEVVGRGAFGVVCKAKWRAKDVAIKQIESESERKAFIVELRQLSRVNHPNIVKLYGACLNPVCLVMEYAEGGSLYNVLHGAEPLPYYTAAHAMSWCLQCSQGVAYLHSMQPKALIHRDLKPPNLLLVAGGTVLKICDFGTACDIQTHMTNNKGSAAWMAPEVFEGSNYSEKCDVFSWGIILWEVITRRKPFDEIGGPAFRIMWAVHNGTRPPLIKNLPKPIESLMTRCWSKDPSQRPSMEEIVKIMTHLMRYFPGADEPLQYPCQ
Procedure, shortened: as §1

SMILES | activity at 100 µM [1] [%] | activity at 100 µM [2] [%] | activity at 100 µM [3] [%] | activity at 100 µM [4] [%] | activity at 100 µM [5] [%] | activity at 100 µM [6] [%] | activity at 100 µM [7] [%] | activity at 100 µM [8] [%] | inhibition at 100 µM ([6]; at 100 μM compound) [%]
Nc1ncnc2c1ncn2C1OC(COP(=O)(O)OP(=O)(O)O)C(O)C1O (stereo not shown) [ADP] | 40.5 | 56.9 | 79.5 | 73.8 | 39.1 | 47.8 | 54.4 | 15.8 | 
CC(C)(COP(=O)(O)OP(=O)(O)OC[C@H]1O[C@@H](n2cnc3c(N)ncnc32)[C@H](O)[C@@H]1OP(=O)(O)O)[C@@H](O)C(=O)NCCC(=O)NCCS [CoA, Coenzyme A] | 119 | 107 | 70.6 | 125 | 88.6 | 54.3 | 120 | 115 | 46
CC(C)(COP(=O)(O)OP(=O)(O)OCC1OC(n2cnc3c(N)ncnc32)C(O)C1O)C(O)C(=O)NCCC(=O)NCCS (stereo not shown) [dpCoA, dephospho-CoA] | 72.5 | 89.7 | 86 | 91.4 | 88.2 | 55.1 | 81.7 | 79.6 | 
